Experimental data from ChEMBL document CHEMBL1201862, “PubChem BioAssay data set” (2004).
One block for each compound: values may come before it. Activity calls are given as the source filed them.

Tests used:
[1] = target: Platelet-derived growth factor receptor alpha (Homo sapiens, UniProt P16234); assay: Navigating the Kinome. Panel member name: PDGFRA; assay type: functional
[2] = target: Leukocyte tyrosine kinase receptor (Homo sapiens, UniProt P29376); assay: Navigating the Kinome. Panel member name: LTK; assay type: functional
[3] = target: RAC-alpha serine/threonine-protein kinase (Homo sapiens, UniProt P31749); assay type: functional;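 also: AKT1 affinity measured as one member of a kinome-wide kinase profiling panel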
[4] = target: Dual specificity tyrosine-phosphorylation-regulated kinase 1B (Homo sapiens, UniProt Q9Y463); assay: Navigating the Kinome. Panel member name: DYRK1B; assay type: functional
[5] = target: Inhibitor of nuclear factor kappa-B kinase subunit epsilon (Homo sapiens, UniProt Q14164); assay: Navigating the Kinome. Panel member name: IKBKE; assay type: functional
[6] = target: Dual specificity protein kinase CLK2 (Homo sapiens, UniProt P49760); assay type: functional
[7] = target: Mitogen-activated protein kinase 14 (Homo sapiens, UniProt Q16539); assay type: functional;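 also: part of a kinome-wide panel, MAPK14 entry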
[8] = target: Protein kinase C iota type (Homo sapiens, UniProt P41743); assay type: functional;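 also: measured within a kinome-wide kinase panel, PRKCI as panel member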
[9] = target: Dual specificity protein kinase CLK4 (Homo sapiens, UniProt Q9HAZ1); assay type: functional
Activin receptor type-1 = Activin receptor type-1 (Homo sapiens, UniProt Q04771); assay: Navigating the Kinome. Panel member name: ACVR1; assay type: functional
[10] = target: G protein-coupled receptor kinase 5 (Homo sapiens, UniProt P34947); assay: Navigating the Kinome. Panel member name: GPRK5; assay type: functional
[11] = target: Serine/threonine-protein kinase pim-1 (Homo sapiens, UniProt P11309); assay type: functional
[12] = target: Leucine-rich repeat serine/threonine-protein kinase 2 (Homo sapiens, UniProt Q5S007); assay type: functional;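 also: value from a broad kinome-wide panel profiling study in which LRRK2 was one of the kinases tested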
[13] = target: Cyclin-dependent kinase 8 (Homo sapiens, UniProt P49336); assay: Navigating the Kinome. Panel member name: CDK8; assay type: functional
[14] = target: Cyclin-dependent kinase 7 (Homo sapiens, UniProt P50613); assay type: functional;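 also: value comes from a kinome-wide kinase profiling panel in which CDK7 is one member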
[15] = target: Cyclin-dependent kinase 5 (Homo sapiens, UniProt Q00535); assay type: functional;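 also: CDK5 measured as one member of a kinase profiling panel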
[16] = target: Serine/threonine-protein kinase TBK1 (Homo sapiens, UniProt Q9UHD2); assay: Navigating the Kinome. Panel member name: TBK1; assay type: functional
[17] = target: Protein kinase C zeta type (Homo sapiens, UniProt Q05513); assay type: functional;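 also: measured as one member of a broad kinase profiling panel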
Activated CDC42 kinase 1 = Activated CDC42 kinase 1 (Homo sapiens, UniProt Q07912); assay: Navigating the Kinome. Panel member name: ACK1; assay type: functional
[18] = target: Tyrosine-protein kinase Lck (Homo sapiens, UniProt P06239); assay type: functional;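 also: lck was assayed as one member of a kinase panel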
Insulin receptor = Insulin receptor (Homo sapiens, UniProt P06213); assay type: functional;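 also: insulin receptor kinase tested as one member of a kinome-wide kinase panel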
[19] = target: Cyclin-dependent kinase 2 (Homo sapiens, UniProt P24941); assay type: functional;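 also: CDK2 measured as one member of a broad kinome profiling panel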
[20] = target: Eukaryotic elongation factor 2 kinase (Homo sapiens, UniProt O00418); assay type: functional
[21] = target: Vascular endothelial growth factor receptor 3 (Homo sapiens, UniProt P35916); assay type: functional;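 also: value from a kinome-wide profiling panel, with FLT4 as the panel member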
LIM domain kinase 1 = LIM domain kinase 1 (Homo sapiens, UniProt P53667); assay: Navigating the Kinome. Panel member name: LIMK1; assay type: functional
[22] = target: Cyclin-dependent kinase 1 (Homo sapiens, UniProt P06493); assay type: functional;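 also: Kinome-wide panel profiling, with the target listed as panel member CDC2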
[23] = target: Inhibitor of nuclear factor kappa-B kinase subunit alpha (Homo sapiens, UniProt O15111); assay type: functional
[24] = target: Ribosomal protein S6 kinase alpha-5 (Homo sapiens, UniProt O75582); assay type: functional
[25] = target: Inhibitor of nuclear factor kappa-B kinase subunit beta (Homo sapiens, UniProt O14920); assay type: functional
[26] = target: Protein-tyrosine kinase 2-beta (Homo sapiens, UniProt Q14289); assay type: functional
[27] = target: Tyrosine-protein kinase receptor UFO (Homo sapiens, UniProt P30530); assay type: functional
Focal adhesion kinase 1 = Focal adhesion kinase 1 (Homo sapiens, UniProt Q05397); assay type: functional;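 also: measured as one member of a kinome panel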
[28] = Dose-response inhibition of insulin secretion in a rat insulinoma line at 5 mM glucose (AID 1117331); assay type: functional, cell-based; conditions: INS-1E
[29] = target: Calcium/calmodulin-dependent protein kinase kinase 2 (Homo sapiens, UniProt Q96RR4); assay: Navigating the Kinome. Panel member name: CAMKK2; assay type: functional

Sequence of Leucine-rich repeat serine/threonine-protein kinase 2 (Q5S007 whole entry): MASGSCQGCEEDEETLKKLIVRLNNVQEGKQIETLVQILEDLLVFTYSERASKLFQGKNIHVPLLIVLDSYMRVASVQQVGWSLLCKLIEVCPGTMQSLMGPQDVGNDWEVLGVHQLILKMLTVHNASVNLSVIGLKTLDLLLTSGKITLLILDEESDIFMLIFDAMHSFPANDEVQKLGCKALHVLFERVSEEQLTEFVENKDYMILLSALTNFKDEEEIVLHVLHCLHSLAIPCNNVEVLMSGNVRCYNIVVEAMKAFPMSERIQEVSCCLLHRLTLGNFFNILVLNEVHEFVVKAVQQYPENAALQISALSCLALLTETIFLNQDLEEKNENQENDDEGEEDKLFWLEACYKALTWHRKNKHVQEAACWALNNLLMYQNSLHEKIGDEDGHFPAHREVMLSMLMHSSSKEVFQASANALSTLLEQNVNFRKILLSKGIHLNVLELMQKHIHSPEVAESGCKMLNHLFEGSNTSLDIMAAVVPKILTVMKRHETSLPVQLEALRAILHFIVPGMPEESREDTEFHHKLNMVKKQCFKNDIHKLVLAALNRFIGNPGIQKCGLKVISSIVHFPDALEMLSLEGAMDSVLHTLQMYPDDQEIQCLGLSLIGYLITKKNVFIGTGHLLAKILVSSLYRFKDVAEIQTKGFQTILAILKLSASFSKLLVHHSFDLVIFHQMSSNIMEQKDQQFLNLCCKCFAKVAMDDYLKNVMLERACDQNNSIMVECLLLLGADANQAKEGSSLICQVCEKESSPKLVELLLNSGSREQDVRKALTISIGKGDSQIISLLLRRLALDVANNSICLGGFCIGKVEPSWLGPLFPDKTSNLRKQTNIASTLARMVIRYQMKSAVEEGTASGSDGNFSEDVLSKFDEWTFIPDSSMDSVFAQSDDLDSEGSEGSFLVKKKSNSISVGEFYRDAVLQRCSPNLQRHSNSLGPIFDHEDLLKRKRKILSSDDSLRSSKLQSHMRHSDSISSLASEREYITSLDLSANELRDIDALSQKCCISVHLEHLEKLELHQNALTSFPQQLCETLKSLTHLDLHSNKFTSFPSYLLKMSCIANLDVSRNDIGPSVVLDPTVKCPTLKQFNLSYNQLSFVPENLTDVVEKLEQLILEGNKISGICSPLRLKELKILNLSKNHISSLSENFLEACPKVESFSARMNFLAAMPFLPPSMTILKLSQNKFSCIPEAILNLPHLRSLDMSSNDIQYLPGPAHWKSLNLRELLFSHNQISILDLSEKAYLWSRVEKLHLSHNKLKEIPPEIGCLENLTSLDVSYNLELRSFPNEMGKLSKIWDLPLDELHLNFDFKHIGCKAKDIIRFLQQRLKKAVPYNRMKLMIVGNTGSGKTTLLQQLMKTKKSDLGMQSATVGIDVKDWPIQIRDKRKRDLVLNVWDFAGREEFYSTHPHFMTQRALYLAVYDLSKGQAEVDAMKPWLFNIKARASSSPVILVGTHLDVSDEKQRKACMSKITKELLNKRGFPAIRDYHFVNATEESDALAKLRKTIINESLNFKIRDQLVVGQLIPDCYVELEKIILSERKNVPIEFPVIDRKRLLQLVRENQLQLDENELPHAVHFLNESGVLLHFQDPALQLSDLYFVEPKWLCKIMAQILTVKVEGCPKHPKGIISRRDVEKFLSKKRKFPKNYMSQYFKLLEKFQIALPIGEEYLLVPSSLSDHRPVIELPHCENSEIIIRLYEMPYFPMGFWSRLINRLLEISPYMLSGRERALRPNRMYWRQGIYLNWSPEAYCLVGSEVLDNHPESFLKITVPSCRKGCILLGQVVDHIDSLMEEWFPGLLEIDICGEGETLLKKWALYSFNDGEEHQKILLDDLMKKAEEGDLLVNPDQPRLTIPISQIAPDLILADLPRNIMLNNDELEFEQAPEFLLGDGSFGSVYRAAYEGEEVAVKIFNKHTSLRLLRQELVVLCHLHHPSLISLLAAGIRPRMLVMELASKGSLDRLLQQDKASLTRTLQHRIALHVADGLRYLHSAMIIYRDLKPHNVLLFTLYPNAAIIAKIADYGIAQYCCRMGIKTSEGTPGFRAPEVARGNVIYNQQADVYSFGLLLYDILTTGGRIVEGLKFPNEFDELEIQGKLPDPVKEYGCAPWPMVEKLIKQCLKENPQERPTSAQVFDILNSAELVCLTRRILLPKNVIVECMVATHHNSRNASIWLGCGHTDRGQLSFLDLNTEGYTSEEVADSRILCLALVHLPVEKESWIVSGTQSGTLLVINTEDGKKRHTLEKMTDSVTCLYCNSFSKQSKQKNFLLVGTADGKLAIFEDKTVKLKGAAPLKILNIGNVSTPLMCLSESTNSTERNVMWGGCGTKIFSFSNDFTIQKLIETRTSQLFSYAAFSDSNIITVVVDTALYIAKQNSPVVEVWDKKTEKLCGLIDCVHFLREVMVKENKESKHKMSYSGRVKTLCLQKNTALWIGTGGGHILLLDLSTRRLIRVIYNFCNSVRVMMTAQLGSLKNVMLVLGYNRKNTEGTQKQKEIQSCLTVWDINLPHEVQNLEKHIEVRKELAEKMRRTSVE
Sequence of Protein kinase C iota type (P41743 whole entry): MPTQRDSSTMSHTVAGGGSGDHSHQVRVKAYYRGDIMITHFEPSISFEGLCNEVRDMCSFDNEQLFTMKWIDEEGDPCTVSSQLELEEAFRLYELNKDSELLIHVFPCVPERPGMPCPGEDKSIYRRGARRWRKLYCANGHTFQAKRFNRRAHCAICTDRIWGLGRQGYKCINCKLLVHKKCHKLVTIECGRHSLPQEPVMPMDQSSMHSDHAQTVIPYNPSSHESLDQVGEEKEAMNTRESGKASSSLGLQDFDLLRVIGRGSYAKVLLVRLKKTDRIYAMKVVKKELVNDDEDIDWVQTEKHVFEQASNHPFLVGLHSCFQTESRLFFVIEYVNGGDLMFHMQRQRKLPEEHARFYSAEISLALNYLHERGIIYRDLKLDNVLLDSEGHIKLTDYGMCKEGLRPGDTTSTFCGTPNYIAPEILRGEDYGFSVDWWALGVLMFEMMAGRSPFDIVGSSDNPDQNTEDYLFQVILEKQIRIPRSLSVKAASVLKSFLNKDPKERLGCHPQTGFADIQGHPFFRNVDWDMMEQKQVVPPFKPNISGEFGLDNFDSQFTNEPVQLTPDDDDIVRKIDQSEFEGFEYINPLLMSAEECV
Sequence of Activated CDC42 kinase 1 (Q07912 whole entry): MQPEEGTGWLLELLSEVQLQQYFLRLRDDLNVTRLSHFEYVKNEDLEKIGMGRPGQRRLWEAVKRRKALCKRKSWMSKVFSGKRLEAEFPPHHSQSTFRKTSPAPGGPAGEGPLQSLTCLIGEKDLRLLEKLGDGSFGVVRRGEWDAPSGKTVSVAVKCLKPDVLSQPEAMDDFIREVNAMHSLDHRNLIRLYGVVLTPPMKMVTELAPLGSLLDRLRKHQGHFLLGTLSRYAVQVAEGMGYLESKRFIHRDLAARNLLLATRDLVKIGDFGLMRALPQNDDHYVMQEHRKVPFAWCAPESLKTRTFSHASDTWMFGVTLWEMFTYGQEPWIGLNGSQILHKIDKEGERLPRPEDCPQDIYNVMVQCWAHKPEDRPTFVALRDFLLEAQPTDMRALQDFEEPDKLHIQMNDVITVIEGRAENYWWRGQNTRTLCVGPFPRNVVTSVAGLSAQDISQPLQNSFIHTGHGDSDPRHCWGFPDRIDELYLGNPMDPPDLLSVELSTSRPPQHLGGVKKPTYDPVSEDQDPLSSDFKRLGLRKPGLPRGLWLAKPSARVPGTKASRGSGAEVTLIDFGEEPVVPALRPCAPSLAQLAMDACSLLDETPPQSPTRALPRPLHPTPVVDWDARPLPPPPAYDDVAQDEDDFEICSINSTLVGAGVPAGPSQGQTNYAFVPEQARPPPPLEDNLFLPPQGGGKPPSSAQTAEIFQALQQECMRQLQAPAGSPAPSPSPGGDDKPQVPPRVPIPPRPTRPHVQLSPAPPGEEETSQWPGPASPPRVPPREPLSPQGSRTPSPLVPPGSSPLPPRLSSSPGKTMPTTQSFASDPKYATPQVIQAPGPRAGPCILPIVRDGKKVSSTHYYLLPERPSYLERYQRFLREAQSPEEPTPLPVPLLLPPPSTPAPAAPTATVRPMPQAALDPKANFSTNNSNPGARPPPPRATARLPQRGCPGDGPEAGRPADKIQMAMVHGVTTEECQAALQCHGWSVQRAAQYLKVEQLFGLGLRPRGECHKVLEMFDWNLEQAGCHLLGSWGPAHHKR
Sequence of Protein kinase C zeta type (Q05513 whole entry): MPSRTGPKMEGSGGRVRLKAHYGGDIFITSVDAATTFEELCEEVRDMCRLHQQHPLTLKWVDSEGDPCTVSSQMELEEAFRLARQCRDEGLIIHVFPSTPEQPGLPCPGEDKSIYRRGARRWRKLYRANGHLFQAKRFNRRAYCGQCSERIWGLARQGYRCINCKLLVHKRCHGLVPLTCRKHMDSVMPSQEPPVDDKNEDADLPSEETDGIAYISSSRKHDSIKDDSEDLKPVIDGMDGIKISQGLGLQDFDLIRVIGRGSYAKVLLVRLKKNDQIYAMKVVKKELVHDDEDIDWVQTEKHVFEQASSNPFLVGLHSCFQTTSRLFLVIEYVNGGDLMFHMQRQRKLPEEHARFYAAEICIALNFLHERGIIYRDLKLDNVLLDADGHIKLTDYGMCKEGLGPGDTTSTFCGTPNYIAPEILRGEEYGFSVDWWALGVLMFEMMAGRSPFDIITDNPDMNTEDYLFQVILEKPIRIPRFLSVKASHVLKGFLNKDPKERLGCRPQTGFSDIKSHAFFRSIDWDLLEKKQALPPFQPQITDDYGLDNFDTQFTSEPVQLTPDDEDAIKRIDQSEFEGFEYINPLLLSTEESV
Sequence of Serine/threonine-protein kinase pim-1 (P11309 whole entry): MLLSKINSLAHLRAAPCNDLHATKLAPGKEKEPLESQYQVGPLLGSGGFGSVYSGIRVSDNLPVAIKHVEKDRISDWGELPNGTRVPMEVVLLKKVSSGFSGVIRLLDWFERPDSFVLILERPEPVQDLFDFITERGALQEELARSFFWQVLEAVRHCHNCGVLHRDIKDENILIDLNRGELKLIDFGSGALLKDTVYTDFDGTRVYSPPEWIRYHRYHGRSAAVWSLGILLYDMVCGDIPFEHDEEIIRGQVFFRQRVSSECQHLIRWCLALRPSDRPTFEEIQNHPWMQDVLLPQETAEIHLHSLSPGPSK

Ki [1]: > 2510 nM (inactive)
Ki [2]: > 2510 nM (inactive)
Ki [3]: 7940 nM (active)
pKi [3]: 5.1
Ki [4]: 0.631 nM (active)
pKi [4]: 9.2
Ki [5]: > 3160 nM (inactive)
Ki [6]: > 2.51 nM (inactive)
Ki [7]: > 3980 nM (inactive)
Ki [8]: 794 nM (active)
pKi [8]: 6.1
Ki [9]: 0.631 nM (active)
pKi [9]: 9.2
Ki (Activin receptor type-1): 2000 nM (active)
pKi (Activin receptor type-1): 5.7
Ki [10]: 2510 nM (active)
pKi [10]: 5.6
Ki [11]: 1580 nM (active)
pKi [11]: 5.8
Ki [12]: 316 nM (active)
pKi [12]: 6.5
Ki [13]: 15.8 nM (active)
pKi [13]: 7.8
Ki [14]: 158 nM (active)
pKi [14]: 6.8
Ki [15]: 316 nM (active)
pKi [15]: 6.5
Ki [16]: > 3160 nM (inactive)
Ki [17]: 794 nM (active)
pKi [17]: 6.1
Ki (Activated CDC42 kinase 1): 1260 nM (active)
pKi (Activated CDC42 kinase 1): 5.9
Structure (SMILES): NC(=O)c1cc(-c2ccnc(N)n2)[nH]c1-c1ccc(Cl)cc1Cl

Ki [18]: 398 nM (active)
Ki (Insulin receptor): > 5010 nM (inactive)
Ki [19]: 126 nM (active)
Ki [20]: 1260 nM (active)
Ki [21]: 25.1 nM (active)
Ki (LIM domain kinase 1): 794 nM (active)
Ki [22]: 251 nM (active)
Ki [23]: 398 nM (active)
Ki [24]: 25.1 nM (active)
Ki [25]: 1260 nM (active)
Ki [26]: > 1580 nM (inactive)
Ki [27]: 10 nM (active)
Ki (Focal adhesion kinase 1): > 1580 nM (inactive)
Structure (SMILES): NC(COc1cncc(-c2ccc3c(c2)C(=Cc2ccco2)C(=O)N3)c1)Cc1c[nH]c2ccccc12 (configuration not stated)

Structure (SMILES): Cc1ccc(-n2nc(C(C)(C)C)cc2NC(=O)Nc2ccc(OCCN3CCOCC3)c3ccccc23)cc1 [DORAMAPIMOD]
IC50 [28]: > 33300 nM (inactive)
Ki [29]: > 2510 nM (inactive)
